From patent US9974931B2, “Pharmaceutical-coated medical products, the production thereof and the use thereof” (Invatec Technology Center Gmbh, priority 2007, dated 2018)

Key:
[1] = Coating of balloon catheters with methotrexate: content of active substance; type: physicochemical; conditions: balloons 3.5 to 19 mm; 2×16 μl coating plus additional coat with Ultravist-370 + HES + methotrexate
Protocol: 30 mg methotrexic acid+100 μl sodium bicarbonate (7.5%)+900 μl methanol (coating with 2×16 μl, corresponding to ˜4 μg/mm^2 balloon surface)
Additional coat: Ultravist®-370+hydroxyethyl starch (HES) 10% (1:1 by volume)+30 mg methotrexate/ml applied by immersing for a short time
Stents: stainless steel, balloon-expandable 3.5 to 18 mm
Content of active substance: 5.3 μg/mm^2 balloon surface

[2] = system: overstretched coronary arteries in pigs; experiment: Efficacy and tolerance of coated balloon catheters with stent implantation, quantitative angiography after 4 weeks; type: in vivo; conditions: pig coronary artery, n = 8; for Late lumen loss: within 4 weeks
Description: The efficacy and tolerance of coated balloon catheters according to example 5 in overstretched coronary arteries in pigs
Method: Scheller B, Speck U, Abramjuk C, Bernhardt U, Böhm M, Nickenig G: Paclitaxel balloon coating—a novel method for prevention and therapy of restenosis. Circulation 2004; 110: 810-4
Stents were implanted into pigs with the help of methotrexate coated or uncoated (control) balloon catheters. After 4 weeks the extent of the constriction of the lumen in the area of the stent was measured using quantitative angiography.
The late lumen loss means the amount by which the original coronary artery lumen diameter decreases due to excessive cell growth within 4 weeks. With blood flowing through them the original coronary artery lumen diameters were 2.64 mm and 2.41 mm respectively. In the control group (no methotrexate) the late lumen loss was 1.1 mm and in the group treated with methotrexate the late lumen loss was 0.67 mm.

[3] = Coating of hydrophilic and non-hydrophilic balloon catheters with paclitaxel by immersion: paclitaxel content on balloon; type: physicochemical; conditions: 4 immersions, 30 mg paclitaxel/ml
Protocol: Coating solution: 30 mg paclitaxel/ml in acetone 89%, ethanol 9%, Ultravist®-370 (Schering AG, Berlin) 2%, by immersing it 4 times and allowing it to dry between each immersion: […]

[4] = Loss of the active substance during expansion in the dry state (adhesion test); type: physicochemical
Description: The active substance can, for example, be released in the form of particles and can then become effective by dissolution in the course of a longer period of time; • Low molecular weight: Substances with a molecular weight less than 5000 Da, and preferably <2000 Da, and particularly preferred <1000 Da; • Hydrophilic/hydrophilised balloon membrane: hydrophilic membranes consisting of materials which can be wetted with water or with hydrophilic solvents; hydrophilised membranes are membranes made out nylon, for example, whose surfaces were changed by subsequent treatment into a state that can be wetted with water or other hydrophilic solvents. • Hydrophilic or hydrophilised membranes are not to be confused with membranes which are provided with an additional hydrophilic layer; • Hydrophilically-coated balloon membrane: A membrane, which contains an additionally applied layer, which can itself be wetted with water; • Open on the surface: Pharmaceuticals or additives which are not incorporated into the balloon membrane or which are not incorporated into any layers that are firmly attached to the balloon membrane. For example, they are not incorporated in any polymeric water-insoluble coatings particularly any hydrogels that may not become detached. […] The balloons are expanded when dry and shaken for 5 seconds in a glass vessel. More than 75% of the dose remains on the balloon; • Highly volatile: Solvents with a boiling point below 300° C., and preferably below 160° C., with below 100° C. being particularly preferred.
Each balloon was coated in the folded state with 3 to 4 μg/mm^2 paclitaxel and was tested for loss of the active substance during expansion in the dry state as defined under ‘Definitions’.

## CN(Cc1cnc2nc(N)nc(N)c2n1)c1ccc(C(=O)N[C@@H](CCC(=O)O)C(=O)O)cc1 [Methotrexate, methotrexate]
[1]
  Content of active substance: 5.3 μg/mm^2 balloon surface
[2]; 28 d
  Minimum vessel diameter 28d: 1.74 ± 0.41 mm
[2]
  Late lumen loss: 0.67 ± 0.39 mm
[2]; listed as methotrexate
  Late lumen loss: 0.67 mm

## CC(=O)O[C@H]1C(=O)[C@@]2(C)[C@H]([C@H](OC(=O)c3ccccc3)[C@]3(O)C[C@H](OC(=O)[C@H](O)[C@@H](NC(=O)c4ccccc4)c4ccccc4)C(C)=C1C3(C)C)[C@]1(OC(C)=O)CO[C@@H]1C[C@@H]2O [paclitaxel]
[3]; hydrophilic catheter, 3.5 to 15 mm, 5 balloon catheters
  μg paclitaxel/mm^2 balloon surface: 2.8 μg/mm^2
[3]; hydrophilic catheter, 3.5 to 20 mm, 8 balloon catheters
  μg paclitaxel/mm^2 balloon surface: 5.6 μg/mm^2
[3]; standard catheter, 3.5 to 15 mm, 5 balloon catheters
  μg paclitaxel/mm^2 balloon surface: 3.4 μg/mm^2
[3]; standard catheter, 3.5 to 20 mm, 8 balloon catheters
  μg paclitaxel/mm^2 balloon surface: 5.0 μg/mm^2
[4]; series 1, coating solvent Acetic acid
  loss of the active substance during expansion in the dry state: 4%
[4]; series 1, coating solvent Acetone, 3 to 4 μg/mm^2, folded
  loss of the active substance during expansion in the dry state: 21%
[4]; series 1, coating solvent Dimethylformamide
  loss of the active substance during expansion in the dry state: 24%
[4]; series 1, coating solvent Dimethylsulfoxide
  loss of the active substance during expansion in the dry state: 66%
[4]; series 1, coating solvent Dioxane
  loss of the active substance during expansion in the dry state: 12%
[4]; series 1, coating solvent Isopropanol
  loss of the active substance during expansion in the dry state: 19%
[4]; series 1, coating solvent Tetrahydrofuran
  loss of the active substance during expansion in the dry state: 4%
[4]; series 2, Tetrahydrofuran with 10% water by volume
  loss of the active substance during expansion in the dry state: 3%
[4]; series 2, Tetrahydrofuran with 20% water by volume
  loss of the active substance during expansion in the dry state: 16%
[4]; series 2, Tetrahydrofuran with 37% water by volume
  loss of the active substance during expansion in the dry state: 37%
[4]; series 2, coating solvent Tetrahydrofuran
  loss of the active substance during expansion in the dry state: 3%
